Source: patent US12637437B2, “Herbicidal compounds” (SYNGENTA CROP PROTECTION AG, priority 2021, dated 2026)

How the values were obtained:
Type in all cases: in vivo
[1] = system: Setaria faberi (SETFA); experiment: Pre-emergence herbicidal glasshouse test, SETFA; settings: 125 g/h, evaluated after 13 days, five-point scale
Procedure: (§1) Seeds of a variety of test species are sown in standard soil in pots (Lolium perenne (LOLPE), Amaranthus retoflexus (AMARE), Abutilon theophrasti (ABUTH), Setaria faberi (SETFA), Echinochloa crus-galli (ECHCG), Ipomoea hederacea (IPOHE)). After cultivation for one day (pre-emergence) or after 8 days cultivation (post-emergence) under controlled conditions in a glasshouse (at 24/16° C., day/night; 14 hours light; 65% humidity), the plants are sprayed with an aqueous spray solution derived from the formulation of the technical active ingredient in acetone/water (50:50) solution containing 0.5% Tween 20 (polyoxyethelyene sorbitan monolaurate, CAS RN 9005-64-5). Compounds are applied at 125 g/h unless otherwise indicated. The test plants are then grown in a glasshouse under controlled conditions in a glasshouse (at 24/16° C., day/night; 14 hours light; 65% humidity) and watered twice daily. After 13 days for pre and post-emergence, the test is evaluated for the percentage damage caused to the plant. The biological activities are shown in the following table on a five-point scale (5=80-100%; 4=60-79%; 3=40-59%; 2=20-39%; 1=0-19%). “—” denotes not tested on this species or data not captured.

[2] = system: Echinochloa crus-galli (ECHCG); experiment: Post-emergence herbicidal glasshouse test, ECHCG; settings: 125 g/h, evaluated after 13 days, five-point scale
Procedure: as §1

[3] = system: Ipomoea hederacea (IPOHE); experiment: Post-emergence herbicidal glasshouse test, IPOHE; settings: 125 g/h, evaluated after 13 days, five-point scale
Procedure: as §1

[4] = system: Ipomoea hederacea (IPOHE); experiment: Pre-emergence herbicidal glasshouse test, IPOHE; settings: 125 g/h, evaluated after 13 days, five-point scale
Procedure: as §1

[5] = system: Setaria faberi (SETFA); experiment: Post-emergence herbicidal glasshouse test, SETFA; settings: 125 g/h, evaluated after 13 days, five-point scale
Procedure: as §1

[6] = system: Amaranthus retoflexus (AMARE); experiment: Pre-emergence herbicidal glasshouse test, AMARE; settings: 125 g/h, evaluated after 13 days, five-point scale
Procedure: as §1

[7] = system: Amaranthus retoflexus (AMARE); experiment: Post-emergence herbicidal glasshouse test, AMARE; set-up: dose or concentration left out as unconfirmed; settings: evaluated after 13 days, five-point scale
Procedure: as §1

[8] = system: Echinochloa crus-galli (ECHCG); experiment: Pre-emergence herbicidal glasshouse test, ECHCG; settings: 125 g/h, evaluated after 13 days, five-point scale
Procedure: as §1

| Compound | percentage damage caused to the plant, PRE Application SETFA [1] | percentage damage caused to the plant, POST Application ECHCG [2] | percentage damage caused to the plant, POST Application IPOHE [3] | percentage damage caused to the plant, PRE Application IPOHE [4] | percentage damage caused to the plant, POST Application SETFA [5] | percentage damage caused to the plant, PRE Application AMARE [6] | percentage damage caused to the plant, POST Application AMARE [7] | percentage damage caused to the plant, PRE Application ECHCG [8] |
| --- | --- | --- | --- | --- | --- | --- | --- | --- |
| CC(=O)N1CCC(OC(=O)Nc2c(OC(F)(F)F)ccc(C(=O)Nc3nnnn3C)c2Cl)CC1 [Compound 1.021] | 1 (1=0-19%) | 5 (5=80-100%) | 2 (2=20-39%) | 2 (2=20-39%) | 4 (4=60-79%) | 3 (3=40-59%) | 4 (4=60-79%) | 1 (1=0-19%) |
| COCCOC(=O)Nc1c(OC(F)F)ccc(C(=O)Nc2nnnn2C)c1Cl [Compound 1.018] | 3 (3=40-59%) | 5 (5=80-100%) | 4 (4=60-79%) | 2 (2=20-39%) | 5 (5=80-100%) | 4 (4=60-79%) | 4 (4=60-79%) | 4 (4=60-79%) |
| COC(=O)N(C)c1c(OC(F)(F)F)ccc(C(=O)Nc2nnnn2C)c1Cl [Compound 1.029] | 5 (5=80-100%) | 5 (5=80-100%) | 5 (5=80-100%) | 5 (5=80-100%) |  | 5 (5=80-100%) | 5 (5=80-100%) | 5 (5=80-100%) |
| CCOC(=O)Nc1c(OC(F)(F)F)ccc(C(=O)Nc2nnnn2C)c1C [Compound 1.036] | 5 (5=80-100%) | 5 (5=80-100%) | 5 (5=80-100%) | 5 (5=80-100%) | 5 (5=80-100%) | 5 (5=80-100%) | 5 (5=80-100%) | 5 (5=80-100%) |
| CCOC(=O)N(C)c1c(OC(F)F)ccc(C(=O)Nc2nnnn2C)c1Cl [Compound 1.041] | 4 (4=60-79%) | 5 (5=80-100%) | 5 (5=80-100%) | 4 (4=60-79%) | 5 (5=80-100%) | 5 (5=80-100%) | 5 (5=80-100%) | 5 (5=80-100%) |
| CCCOC(=O)Nc1c(OC(F)(F)F)ccc(C(=O)Nc2nnnn2C)c1Cl [Compound 1.014] | 4 (4=60-79%) | 5 (5=80-100%) | 4 (4=60-79%) | 2 (2=20-39%) | 5 (5=80-100%) | 3 (3=40-59%) | 4 (4=60-79%) | 4 (4=60-79%) |
| Cn1nnnc1NC(=O)c1ccc(OC(F)F)c(NC(=O)OCCS(C)(=O)=O)c1Cl [Compound 1.028] | 1 (1=0-19%) | 2 (2=20-39%) | 3 (3=40-59%) | 2 (2=20-39%) |  | 5 (5=80-100%) | 5 (5=80-100%) | 3 (3=40-59%) |
| CCN(C(=O)OC)c1c(OC(F)(F)F)ccc(C(=O)Nc2nnnn2C)c1Cl [Compound 1.030] | 5 (5=80-100%) | 5 (5=80-100%) | 5 (5=80-100%) | 4 (4=60-79%) |  | 5 (5=80-100%) | 5 (5=80-100%) | 5 (5=80-100%) |
